Laboratory results reported in US20240279218A1 (Hoffmann-La Roche Inc., priority 2016, published 2024).

Columns and labels:
h-GABA-A α5β3γ2 [1] = biological target: T1, h-GABA-A α5β3γ2 (Homo sapiens (Human), UniProt P18507+P31644); assay: [3H]flumazenil competition binding assay, membranes of HEK293 cells expressing human GABAA receptors; details: displacement of [3H]flumazenil 0.5 nM, HEK293 cells expressing human receptors, mean of two determinations; read-out: Ki h-GABA-A α5β3γ2
Outline: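 Displacement of [3H]flumazenil from membranes of HEK293 cells transiently expressing human α5β3γ2 receptors, in Krebs-tris buffer pH 7.5. Incubation to equilibrium, 1 h at 4° C., then filtration and scintillation counting. Ki is the mean of two determinations.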

h-GABA-A α5β3γ2 [2] = biological target: T1, h-GABA-A α5β3γ2; assay: Two-electrode voltage clamp electrophysiology in Xenopus oocytes expressing GABAA receptors, modulation of GABA EC20 current; type: cell-based; details: Xenopus oocytes; for Efficacy (GABA) %: % modulation of GABA EC20 = 100*(Fold increase−1); for Fold increase h-GABA-A α5β3γ2 oocyte: GABA EC20, test compound at approx. 30 fold its Ki
Outline: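 Values are % modulation of an EC20 GABA response, derived point by point from the ratio of compound-exposed versus control current traces (extremum taken, 100×(fold−1)). Recordings used oocytes injected with human α5, β3, γ2 mRNA, clamped at −80 mV at room temperature, at least 3 oocytes each.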

SMILES | Ki (h-GABA-A α5β3γ2 [1]) [nM] | Efficacy (GABA) % (h-GABA-A α5β3γ2 [2]) [%] | Fold increase h-GABA-A α5β3γ2 oocyte (h-GABA-A α5β3γ2 [2])
COc1cc(OCc2c(-c3ccc(C)nc3)noc2C)ncc1C(=O)NC1CCOCC1 [Example 142, 4-methoxy-6-((5-methyl-3-(6-methylpyridin-3-yl)isoxazol-4-yl)methoxy)-N-(tetrahydropyran-4-yl)nicotinamide] | 4.7 | 44 | 1.44
Cc1onc(-c2ccc(Cl)nc2)c1COc1ccc(C(=O)NC2(C)COC2)nn1 [Example 161, 6-((3-(6-chloropyridin-3-yl)-5-methylisoxazol-4-yl)methoxy)-N-(3-methyloxetan-3-yl)pyridazine-3-carboxamide] | 8 | 60 | 1.6
Cc1ccc(-c2noc(C)c2COc2nnc(C(=O)NC3CCOCC3)cc2C)cn1 [Example 71] | 2.4 | 61 | 1.61
Cc1ccc(-c2noc(C)c2COc2ccc(C(=O)N3CCC(F)(F)C3)nn2)cn1 [Example 48, (3,3-difluoropyrrolidin-1-yl)(6-((5-methyl-3-(6-methylpyridin-3-yl)isoxazol-4-yl)methoxy)pyridazin-3-yl)methanone] | 31.6 | 74 | 1.74
Cc1ccc(-c2noc(C)c2COc2ccc(C(=O)N[C@H]3CCCC[C@@H]3O)nn2)cn1 [Example 24, N-((1S,2S)-2-hydroxycyclohexyl)-6-((5-methyl-3-(6-methylpyridin-3-yl)isoxazol-4-yl)methoxy)pyridazine-3-carboxamide] | 41.6 | 63 | 1.63
Cc1ccc(-c2noc(C)c2COc2ccc(C(=O)NC3(C)CCSCC3)nn2)cn1 [Example 110, 6-((5-methyl-3-(6-methylpyridin-3-yl)isoxazol-4-yl)methoxy)-N-(4-methyltetrahydrothiopyran-4-yl)pyridazine-3-carboxamide] | 15.5 | 65 | 1.65
Cc1ccc(-c2noc(CF)c2COc2ccc(C(=O)NC3CCOCC3)nn2)nn1 [Example 192, 6-((5-(fluoromethyl)-3-(6-methylpyridazin-3-yl)isoxazol-4-yl)methoxy)-N-(tetrahydropyran-4-yl)pyridazine-3-carboxamide] | 3 | 56 | 1.56
Cc1ccc(-c2noc(C)c2COc2ccc(C(=O)N3CC(O)C3)nn2)cn1 [Example 66, (3-hydroxyazetidin-1-yl)(6-((5-methyl-3-(6-methylpyridin-3-yl)isoxazol-4-yl)methoxy)pyridazin-3-yl)methanone] | 5.8 | 69 | 1.69
Cc1onc(-c2ccc(C3CC3)nc2)c1COc1ccc(C(=O)NC2CCS(=O)(=O)CC2)cn1 [Example 130, 6-((3-(6-cyclopropyl-3-pyridyl)-5-methyl-isoxazol-4-yl)methoxy)-N-(1,1-dioxothian-4-yl)pyridine-3-carboxamide] | 30.4 | 128 | 2.28
Cc1ccc(-c2noc(C)c2COc2ccc(C(=O)N[C@H]3CC4CCC3O4)nn2)cn1 (stereo partly drawn) [Example 186, N-((2S)-7-oxabicyclo[2.2.1]heptan-2-yl)-6-((5-methyl-3-(6-methylpyridin-3-yl)isoxazol-4-yl)methoxy)pyridazine-3-carboxamide] | 16.6 | 72 | 1.72
Cc1ccc(-c2noc(CF)c2COc2ccc(C(=O)NC3CCOCC3)nn2)cn1 [Example 168, 6-((5-(fluoromethyl)-3-(6-methylpyridin-3-yl)isoxazol-4-yl)methoxy)-N-(tetrahydropyran-4-yl)pyridazine-3-carboxamide] | 32.4 | 102 | 2.02
Cc1ccc(-c2noc(C)c2COc2cnc(C(=O)N3CC4(C3)CS(=O)(=O)C4)cn2)cn1 [Example 113, (2,2-dioxido-2-thia-6-azaspiro[3.3]heptan-6-yl)(5-((5-methyl-3-(6-methylpyridin-3-yl)isoxazol-4-yl)methoxy)pyrazin-2-yl)methanone] | 33.8 | 28 | 1.28

Further lines, results first:

Ki (h-GABA-A α5β3γ2 [1]) [nM] | Efficacy (GABA) % (h-GABA-A α5β3γ2 [2]) [%] | Fold increase h-GABA-A α5β3γ2 oocyte (h-GABA-A α5β3γ2 [2]) | SMILES
25.6 | 156 | 2.56 | CCC[C@@H](CO)NC(=O)c1ccc(OCc2c(-c3ccc(C4CC4)nc3)noc2C)nc1 [Example 129, 6-((3-(6-cyclopropyl-3-pyridyl)-5-methyl-isoxazol-4-yl)methoxy)-N-((1S)-1-(hydroxymethyl)butyl)pyridine-3-carboxamide]
36.6 | 47 | 1.47 | CCC[C@H](CO)NC(=O)c1ccc(OCc2c(-c3ccc(C)nc3)noc2C)nc1 [Example 124, (R)—N-(1-hydroxypentan-2-yl)-6-((5-methyl-3-(6-methylpyridin-3-yl)isoxazol-4-yl)methoxy)pyridine-3-carboxamide]
56.2 | 72 | 1.72 | CCOC(=O)C1(NC(=O)c2ccc(OCc3c(-c4ccc(C)nc4)noc3C)nn2)CC1 [Example 68, ethyl 1-(6-((5-methyl-3-(6-methylpyridin-3-yl)isoxazol-4-yl)methoxy)pyridazine-3-carboxamido)cyclopropanecarboxylate]
11.3 | 96 | 1.96 | Cc1ccc(-c2noc(C)c2COc2ccc(C(=O)NC(C)(C)CCO)nn2)cn1 [Example 79, N-(4-hydroxy-2-methylbutan-2-yl)-6-((5-methyl-3-(6-methylpyridin-3-yl)isoxazol-4-yl)methoxy)pyridazine-3-carboxamide]
26 | 51 | 1.51 | Cc1ccc(-c2noc(C)c2COc2ccc(C(=O)N[C@@H]3CCCC(F)(F)[C@H]3O)cn2)cn1 [Example 131, N-((1R,2S)-3,3-difluoro-2-hydroxycyclohexyl)-6-((5-methyl-3-(6-methylpyridin-3-yl)isoxazol-4-yl)methoxy)pyridine-3-carboxamide]
25.6 | 102 | 2.02 | CCC[C@@H](CO)NC(=O)c1ccc(OCc2c(-c3ccc(C)nc3)noc2C)nn1 [Example 7, (S)—N-(1-hydroxypentan-2-yl)-6-((5-methyl-3-(6-methylpyridin-3-yl)isoxazol-4-yl)methoxy)pyridazine-3-carboxamide]
19.4 | 152 | 2.52 | CCC[C@@H](CO)NC(=O)c1ccc(OCc2c(-c3ccc(OC)nc3)noc2C)nc1 [Example 139, (S)—N-(1-hydroxypentan-2-yl)-6-((3-(6-methoxypyridin-3-yl)-5-methylisoxazol-4-yl)methoxy)pyridine-3-carboxamide]
58.6 | 245 | 3.45 | CCC[C@@H](CO)NC(=O)c1ccc(OCc2c(-c3ccc(C)nc3)noc2C2CC2)nc1 [Example 5, 6-((5-cyclopropyl-3-(6-methyl-3-pyridyl)isoxazol-4-yl)methoxy)-N-((1S)-1-(hydroxymethyl)butyl)pyridine-3-carboxamide]
